Measurements published in US9073982B2, “Targets for regulation of angiogenesis” (The University of North Carolina at Chapel Hill, priority 2008, dated 2015).
Entries after “also recorded” stand apart in the source; their conditions may differ.

Experiments:
SVR angiosarcoma cells = assay: SVR angiosarcoma cell tube formation assay; assay type: cell-based, mouse; conditions: for inhibition of SVR tube formation by sera compared to control mouse sera: sera at 1:100 dilution
Procedure: (§1) The tube formation properties of SFRP2 on MEC cells were evaluated using an endothelial cell tube formation assay. ECMATRIX (Chemicon) was thawed, diluted and solidified in a 96 well plate according to the manufactures instructions. 1×10^4 cells/well in 150 μl of DMEM (cellgro) with 10% FBS (HyClone) and a concentration range (3-3000 pM) of SFRP2 (US Biologicals) were seeded onto the matrix and returned to 37° C., 5% CO2 for 8 hours. Images were acquired using the Nikon Eclipse TS100 microscope at 4× magnification with a Nikon CoolPix 995 digital camera. Results were quantified by counting the number of branch point. To evaluate whether tacrolimus inhibits SFRP2 induced tube formation, MEC cells were treated as above with SFRP2 30 nM with and without tacrolimus (1 μM-100 uM) for 8 hours and branch points were determined as described above. To evaluate whether inhibitors of SFRP2-mediated angiogenesis would inhibit the growth of SVR tumor cells, SVR cells were treated with tacrolimus (1 μM-100 μM) or with a rabbit polyclonal antibody to SFRP-2 (H-140) (Santa Cruz Biotechnology, Santa Cruz, Calif., catalogue 4 sc-13940) in the tube formation assay.
As a further test of the contribution of SFRP2 to endothelial tube formation, it was evaluated whether loss of function of SFRP2 would inhibit SVR angiosarcoma tube formation. This was studied two different ways, first with a blocking antibody to SFRP2, and then using siRNA to SFRP2. SVR cells were plated in MATRIGEL in a tube formation assay and treated with a polyclonal antibody to SFRP2. […] After 72 h of transfection using LIPOFECTAMINE™ RNAiMAX Transfection reagent (Invitrogen) according to the manufacturer's protocol, cells were harvested and ready for Western blot analyses and tube formation assay.
Monoclonal antibodies for the epitope corresponding to AbB (AA202-AA220) were prepared. […] The angiosarcoma cells were suspended in 150 μl of antibody containing growth media for 90 different samples and control media, After 6 hours, pictures were taken and the number of branch points for each well was counted. […]

MEC cells = assay: Trypan blue uptake (cytotoxicity) in MEC cells; assay type: cell-based, mouse; conditions: tacrolimus-treated MEC cells
Procedure: (§2) To evaluate whether tacrolimus inhibits SFRP2 induced tube formation, MEC cells were treated as above with SFRP2 7 nM with and without tacrolimus 100 uM for 8 hours and branch points were determined as described above. To evaluate whether tacrolimus reversed established tubes, cells were incubated with SFRP2 7 nM for 8 hours and then BSA or tacrolimus 100 μM was added to SFRP2 treated cells for an additional 4 hours, and then the number of branch points were counted. […] Tacrolimus was not cytotoxic to MEC cells, as only 5% of tacrolimus-treated cells took up trypan blue dye (data not shown).

[1] = tested on: MMTV-neu transgenic mouse tumors; assay: MMTV-neu transgenic mouse tumor growth; assay type: in vivo
Procedure: In a second study, MMTV-neu transgenic mice were treated with tacrolimus 3 mg/kg/daily or no treatment. Treatment began when tumors were palpable and continued for 21 days. Tumor volumes were monitored with serial ultrasounds. A two-tailed T-test was used to determine the difference between growth rates of the tumors between treated and non-treated tumors.

2H11 cells = assay: 2H11 endothelial MATRIGEL tube formation assay; assay type: cell-based, mouse; conditions: for inhibition of SFRP2 stimulated endothelial tube formation: SFRP2 stimulated 2H11 cells; for inhibition of VEGF stimulated endothelial tube formation: VEGF stimulated 2H11 cells
Source text: The ability for tacrolimus to inhibit SFRP2 and VEGF stimulated 2H11 endothelial tube formation in vitro was studied in a MATRIGEL tube formation assay.

[2] = tested on: SVR angiosarcoma xenografts; assay: SVR angiosarcoma xenografts in nude mice; assay type: in vivo; conditions: for growth of SVR angiosarcoma xenografts: nude mice
Procedure: To test the ability of tacrolimus to inhibit angiogenesis in vivo, SVR mouse angiosarcoma cells (0.5×10^6) were injected into the flank of 6-week-old nude male mice obtained from Charles River Breeding Laboratories. Treatment was initiated on the day after inoculation. Mice received 3 mg/kg/daily tacrolimus or vehicle control suspended in 20% Intralipid (Baxter Healthcare, Deerfield, Ill.) in a total volume of 0.3 ml intraperitoneally (i.p.), and were treated daily for 19 days. Serial caliper measurements of perpendicular diameters were used to calculate tumor volume using the following formula: (shortest diameter)^2×(longest diameter)×0.52. Differences in tumor volume over time were analyzed with a two way ANOVA. A P value of ≦0.05 indicated a statistically significant reduction in tumor growth of the treated group compared to the control group. […] Treatment with tacrolimus reduced mean tumor volume by 46% at day 19 (589±129 mm^3 vs 315±93 mm^3, two-way ANOVA, p=0.04, FIG. 26).
The ability of a monoclonal antibody recognizing SFRP2 to inhibit tumor growth in vivo was tested in a nude mouse assay. The SFRP2 MAb subclone 80.8.6 was first tested with SVR angiosarcoma xenografts. Six week old nude mice were injected with 1×10^6 SVR angiosarcoma cells. The day after injections treated mice received SFRP2 MAb(80.8.6) 4 mg/kg i.v. twice weekly (n=5), and controls received equal volumes of buffer. At day 14 there was a 65% decrease in tumor volume (*p=0.03, two-tailed student's t-test) (FIG. 34).

[3] = tested on: mouse endothelial cells (MEC); assay: Endothelial cell tube formation assay, MEC cells; assay type: cell-based; conditions: for inhibition of SFRP2 induced tube formation: SFRP2 7 nM or 30 nM, tacrolimus 1 μM-100 uM, 8 hours
Procedure: The tube formation properties of SFRP2 on mouse endothelial cells (MEC) cells were evaluated using an endothelial cell tube formation assay. ECMATRIX (Chemicon) was thawed, diluted and solidified in a 96 well plate according to the manufacturer's instructions. 1×10^4 cells/well in 150 μl of DMEM (celigro) with 10% FBS (HyClone) and a concentration range (7-7000 pM) of SFRP2 (US Biologicals) were seeded onto the matrix and returned to 37° C., 5% CO2 for 8 hours. Images were acquired using the Nikon Eclipse TS100 microscope at 4× magnification with a Nikon CoolPix 995 digital camera. Results were quantified by counting the number of branch points.
as §2, §1

[4] = tested on: MDA-MB-231 breast cancer xenografts; assay: MDA-MB-231 breast cancer xenografts in nude mice; assay type: in vivo; conditions: 4 mg/kg i.v. twice weekly
Procedure: The SFRP2 MAb subclone 80.8.6 was next tested with MDA-MB-231 breast cancer xenografts. Six week old female nude mice were injected with 1×10^6 MDA-MB-231 cells. After 4 weeks, when tumors were palpable, mice received SFRP2 MAb (80.8.6) 4 mg/kg i.v. twice weekly (n=12), and controls received equal volumes of buffer. At day 8 the median tumor volume for controls was 1200 mm^3, and for SFRP2 MAb treated mice was 580 mm^3, which represents a 52% decrease in tumor volume (p=0.04, two-tailed student's t-test).

[5] = tacrolimus 3 mg/kg/daily i.p., day 19

AbC: sera from mouse immunized against SFRP2 epitope amino acids AA270-AA295 (ITSVKRWQKGQREFKRISRSIRKLQC)
inhibition of SVR tube formation by sera compared to control mouse sera (SVR angiosarcoma cells): inhibited SVR tube formation; also recorded: greatest inhibition

C=CC[C@@H]1/C=C(\C)C[C@H](C)C[C@H](OC)[C@H]2O[C@@](O)(C(=O)C(=O)N3CCCC[C@H]3C(=O)O[C@H](/C(C)=C/[C@@H]3CC[C@@H](O)[C@H](OC)C3)[C@H](C)[C@@H](O)CC1=O)[C@H](C)C[C@@H]2OC [tacrolimus]
treated cells that took up trypan blue dye (MEC cells): 5%
growth rate of MMTV-neu tumors ([1]; mouse, in vivo): inhibits the growth rate
signs of toxicity (diarrhea, infection, lethargy, weight loss) ([1]; tacrolimus 3 mg/kg/daily, 21 days): no signs of toxicity
reduction in tumor growth rate ([1]; tacrolimus 3 mg/kg/daily, day 21): 59%
inhibition of SFRP2 stimulated endothelial tube formation (2H11 cells): inhibits SFRP2-induced mouse endothelial cell tube formation
inhibition of SFRP2 stimulated endothelial tube formation (2H11 cells; listed as Tacrolimus): inhibited endothelial tube formation
inhibition of VEGF stimulated endothelial tube formation (2H11 cells): inhibits VEGF-induced mouse endothelial cell tube formation
inhibition of VEGF stimulated endothelial tube formation (2H11 cells; listed as Tacrolimus): inhibited endothelial tube formation
growth of SVR angiosarcoma xenografts [2]: effective at suppressing the growth; also recorded: inhibits the growth
signs of toxicity (diarrhea, infection, lethargy, weight loss) ([2]; tacrolimus 3 mg/kg/daily i.p., 19 days): no signs of toxicity
mean tumor volume [2, 5]: 315±93 mm^3
reduction of mean tumor volume [2, 5]: 46%
inhibition of SVR angiosarcoma tube formation (SVR angiosarcoma cells): inhibited by tacrolimus; also recorded: inhibits tube formation in SVR angiosarcoma cells
inhibition at 1 µM ([3]; Mus musculus, Endothelial cell, tacrolimus 1 μM, SFRP2 30 nM, read-out: inhibition of SFRP2 induced tube formation): 64%
reversal of established SFRP2-induced tubes ([3]; SFRP2 7 nM 8 hours, then tacrolimus 100 μM for 4 hours): reversed SFRP2-induced tube formation; also recorded: reverses SFRP2-induced mouse endothelial cell tube formation
inhibition of SFRP2 induced tube formation [3]: inhibits SFRP2-induced mouse endothelial cell tube formation; also recorded: inhibits tube formation in SFRP2-induced MEC cells
inhibition of SFRP2 induced tube formation ([3]; listed as Tacrolimus): inhibited SFRP2 induced tube formation

AbB: sera from mouse immunized against SFRP2 epitope amino acids AA202-AA220 (EITYINRDTKIILETKSKTC)
inhibition of SVR tube formation by sera compared to control mouse sera (SVR angiosarcoma cells): inhibited SVR tube formation; also recorded: greatest inhibition

B1: SFRP2 MAb (80.8.6): monoclonal antibody produced by hybridoma cell line UNC 68-80 (subclone 80.8.6), ATCC PTA-11762; VH SEQ ID NO:13, VL SEQ ID NO:15 (antibody, V domains shown)
VH: QVQLQQPGAELVQPGASVMLSCKASGFTFTRYWWHWVRQTPGRGLEWIGRIDPNSGTTRFIEKFKTKATLTVDKPSSTAYMHLSSLTSEDSAVYYCARWGPYYGYAMDYWGPGTSVTVSS
VL: QIVLTQSPAIMSASPGQKVTITCSASSSVTYMHWYQQKLGSSPKLWIYDTSRLAPGSPARFSGSGSGTSYSLTISSMETEDAASYFCHQWSTYPPTFGTGTKLEIQ
modifications: Heavy chain variable region sequence; Light chain variable region sequence
toxicity or weight loss [4]: No toxicity or weight loss
decrease in tumor volume ([4]; day 8): 52%
median tumor volume ([4]; day 8): 580 mm^3
toxicity or weight loss ([2]; 4 mg/kg i.v. twice weekly): No toxicity or weight loss
decrease in tumor volume ([2]; 4 mg/kg i.v. twice weekly, day 14): 65%
growth of SVR angiosarcoma xenografts [2]: inhibits the growth
